{"source": "patent US6673790B1", "about": "“Indolin-2-one derivatives, preparation and their use as ocytocin receptor ligands” (Sanofi-Synthelabo, priority 2002, dated 2004)", "key": {"[1]": {"target": "T1, human uterine oxytocin receptors (Homo sapiens, UniProt P30559)", "T1 construct": "host or cells: membrane preparation", "T1 sequence (P30559 1-389)": "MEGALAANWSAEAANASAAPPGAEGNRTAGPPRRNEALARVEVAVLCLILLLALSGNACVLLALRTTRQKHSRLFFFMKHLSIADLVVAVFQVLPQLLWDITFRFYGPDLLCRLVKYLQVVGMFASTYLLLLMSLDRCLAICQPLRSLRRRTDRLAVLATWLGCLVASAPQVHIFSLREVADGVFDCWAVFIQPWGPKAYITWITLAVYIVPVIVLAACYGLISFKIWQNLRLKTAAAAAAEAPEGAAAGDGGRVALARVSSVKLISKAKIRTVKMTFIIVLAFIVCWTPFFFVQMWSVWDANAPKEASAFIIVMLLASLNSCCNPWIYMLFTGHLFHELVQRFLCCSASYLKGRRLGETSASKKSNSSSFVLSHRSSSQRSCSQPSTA", "assay": "in vitro binding test: displacement of a radioiodinated oxytocin analogue in a membrane preparation", "description": "The compounds according to the invention have formed the subject of biochemical and pharmacological studies. The affinity of the compounds according to the invention for oxytocin receptors was determined in an in vitro binding test using the method described by J. Elands et al. in Eur. Pharmacol., 1987, 147, 192-207. This method consists in studying in vitro the displacement of a radioiodinated oxytocin analogue at the oxytocin receptors in a membrane preparation of human uterine oxytocin receptors. The IC50 values (concentration which inhibits 50% of the binding of the radioiodinated oxytocin analogue to its receptors) are low and vary from 10^−10 to 10^−6 M in the latter test."}, "[2]": {"target": "human vasopressin V1a receptors (Homo sapiens, UniProt P37288)", "sequence (P37288 whole entry)": "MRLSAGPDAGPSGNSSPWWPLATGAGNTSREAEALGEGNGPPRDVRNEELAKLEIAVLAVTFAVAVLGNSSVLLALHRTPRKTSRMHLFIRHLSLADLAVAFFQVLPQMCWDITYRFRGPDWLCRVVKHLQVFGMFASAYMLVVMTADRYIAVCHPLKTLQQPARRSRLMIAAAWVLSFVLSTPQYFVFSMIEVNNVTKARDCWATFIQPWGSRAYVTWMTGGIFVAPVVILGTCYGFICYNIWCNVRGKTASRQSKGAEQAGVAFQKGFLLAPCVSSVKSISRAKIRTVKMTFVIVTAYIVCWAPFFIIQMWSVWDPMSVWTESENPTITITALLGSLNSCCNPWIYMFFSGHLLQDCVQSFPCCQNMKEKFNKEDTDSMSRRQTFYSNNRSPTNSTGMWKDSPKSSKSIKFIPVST", "assay": "affinity for vasopressin V1a receptors (method of Thibonnier et al.)", "assay_type": "binding", "details": "read-out: IC50 with respect to the V1a receptors", "description": "(§1) The affinity of the compounds according to the invention for human vasopressin V1a receptors (method described by M. Thibonnier et al. in J. Biol. Chem., 1994, 269, 3304-3310), V1b receptors (method described by T. Sugimoto et al. in J. Biol. Chem., 1994, 269, 27088-27092) and V2 receptors (method described by M. Birnbaumer et al. in Nature (Lond.), 1992, 357, 333-335) has also been studied. The compounds studied have little or no affinity for the V1a, V1b and V2 receptors."}, "[3]": {"target": "T2, human vasopressin V1b receptors (Homo sapiens, UniProt P47901)", "T2 sequence (P47901 1-424)": "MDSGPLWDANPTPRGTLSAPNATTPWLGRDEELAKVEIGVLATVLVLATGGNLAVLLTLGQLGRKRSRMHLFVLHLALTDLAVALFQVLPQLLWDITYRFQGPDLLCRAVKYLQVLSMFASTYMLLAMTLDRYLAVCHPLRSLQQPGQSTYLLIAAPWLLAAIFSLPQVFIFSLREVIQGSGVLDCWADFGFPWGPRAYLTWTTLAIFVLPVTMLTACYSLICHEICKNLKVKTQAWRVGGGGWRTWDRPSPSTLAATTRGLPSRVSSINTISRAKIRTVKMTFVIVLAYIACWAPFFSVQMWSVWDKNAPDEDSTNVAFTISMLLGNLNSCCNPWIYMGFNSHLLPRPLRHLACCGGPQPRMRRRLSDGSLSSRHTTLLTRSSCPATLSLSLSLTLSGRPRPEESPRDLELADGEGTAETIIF", "assay": "affinity for vasopressin V1b receptors (method of Sugimoto et al.)", "assay_type": "binding", "details": "read-out: IC50 with respect to the V1b receptors", "description": "as §1"}, "[4]": {"target": "human vasopressin V2 receptors (Homo sapiens, UniProt P30518)", "sequence (P30518 whole entry)": "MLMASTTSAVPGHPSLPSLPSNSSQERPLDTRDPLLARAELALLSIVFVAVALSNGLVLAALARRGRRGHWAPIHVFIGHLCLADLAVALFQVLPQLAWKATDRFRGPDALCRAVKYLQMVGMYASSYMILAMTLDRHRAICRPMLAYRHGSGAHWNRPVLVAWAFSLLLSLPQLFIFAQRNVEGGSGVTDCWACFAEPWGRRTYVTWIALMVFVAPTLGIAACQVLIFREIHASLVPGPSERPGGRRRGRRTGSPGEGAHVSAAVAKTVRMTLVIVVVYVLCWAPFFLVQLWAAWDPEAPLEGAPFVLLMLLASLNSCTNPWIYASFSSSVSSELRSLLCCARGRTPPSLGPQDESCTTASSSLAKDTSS", "assay": "affinity for vasopressin V2 receptors (method of Birnbaumer et al.)", "assay_type": "binding", "details": "read-out: IC50 with respect to the V2 receptors", "description": "as §1"}, "[5]": {"target": "T3, cells expressing human oxytocin receptors (Homo sapiens, UniProt P30559)", "T3 sequence (P30559 1-389)": "T1 sequence (P30559 1-389)", "assay": "measurement of intracellular calcium, agonist or antagonist nature", "assay_type": "cell-based", "description": "The agonist or antagonist nature of the compounds is determined in vitro in a test for the measurement of intracellular calcium with respect to cells expressing human oxytocin receptors according to the general technique described in Am. J. Physiol., 268 (Heart Circ. Physiol., 37), 1995, H404-H410."}}, "data": [{"compound": "CCN(CCOC)C(=O)c1ccc(Cl)c(C2(C)C(=O)N(Cc3ccc(OC)cc3OC)c3ccc(Cl)cc32)c1", "note": "(stereo not shown)", "values": [{"measurement": "melting point", "value": 86.3, "unit": "°C"}]}, {"compound": "COc1ccc(CN2C(=O)C(C)(c3ccccc3Cl)c3cc(Cl)ccc32)c(OC)c1", "note": "(racemic) [Example 1, 5-Chloro-3-(2-chlorophenyl)-1-(2,4-dimethoxybenzyl)-3-methylindolin-2-one]", "values": [{"measurement": "IC50", "setting": "[1]", "value": "< 50", "unit": "nM"}, {"measurement": "IC50", "setting": "[2]", "value": "> 1000", "unit": "nM"}, {"measurement": "IC50", "setting": "[3]", "value": "> 1000", "unit": "nM"}, {"measurement": "IC50", "setting": "[4]", "value": "> 1000", "unit": "nM"}]}, {"compound": "CCN(C(=O)c1ccc(Cl)c(C2(C)C(=O)N(Cc3ccc(OC)cc3OC)c3ccc(Cl)cc32)c1)C(C)C", "note": "(stereo not shown)", "values": [{"measurement": "melting point", "value": 102.8, "unit": "°C"}]}, {"compound": "CCN(C)C(=O)c1ccc(Cl)c(C2(C)C(=O)N(Cc3ccc(OC)cc3OC)c3ccc(Cl)cc32)c1", "note": "(stereo not shown)", "values": [{"measurement": "melting point", "value": 166, "unit": "°C"}]}, {"compound": "COC(=O)C1CCCCN1C(=O)c1ccc(Cl)c(C2(C)C(=O)N(Cc3ccc(OC)cc3OC)c3ccc(Cl)cc32)c1", "note": "(stereo not shown)", "values": [{"measurement": "melting point", "value": 116, "unit": "°C"}]}, {"compound": "COc1ccc(CN2C(=O)C(C)(c3cc(CN4CCOCC4)ccc3Cl)c3cc(Cl)ccc32)c(OC)c1", "note": "(stereo not shown)", "values": [{"measurement": "melting point", "value": 145, "unit": "°C"}]}, {"compound": "COc1ccc(CN2C(=O)C(C)(c3ccccc3Cl)c3cc(Cl)ccc32)c(OC)c1", "note": "(single isomer, unassigned) [dextrorotatory enantiomer of Example 1, 5-Chloro-3-(2-chlorophenyl)-1-(2,4-dimethoxybenzyl)-3-methylindolin-2-one]", "values": [{"measurement": "agonist or antagonist nature", "setting": "[5]", "value": "antagonist"}, {"measurement": "IC50", "setting": "[5]; read-out: IC50 as antagonist", "value": "3.2 ± 1.9", "unit": "nM"}]}, {"compound": "CCN(CCc1ccccc1)C(=O)c1ccc(Cl)c(C2(C)C(=O)N(Cc3ccc(OC)cc3OC)c3ccc(Cl)cc32)c1", "note": "(stereo not shown)", "values": [{"measurement": "melting point", "value": 111.7, "unit": "°C"}]}, {"compound": "COc1ccc(CN2C(=O)C(C)(c3cc(N(C)S(=O)(=O)c4ccccc4)ccc3Cl)c3cc(Cl)ccc32)c(OC)c1", "note": "(stereo not shown) (hydrate or solvate)", "values": [{"measurement": "melting point", "value": 73, "unit": "°C"}]}, {"compound": "COCC1CCCN1C(=O)c1ccc(Cl)c(C2(C)C(=O)N(Cc3ccc(OC)cc3OC)c3ccc(Cl)cc32)c1", "note": "(stereo not shown)", "values": [{"measurement": "melting point", "value": 98, "unit": "°C"}]}, {"compound": "COCC(=O)Nc1ccc(Cl)c(C2(C)C(=O)N(Cc3ccc(OC)cc3OC)c3ccc(Cl)cc32)c1", "note": "(stereo not shown)", "values": [{"measurement": "melting point", "value": 191, "unit": "°C"}]}, {"compound": "COCCOCc1ccc(Cl)c(C2(C)C(=O)N(Cc3ccc(OC)cc3OC)c3ccc(Cl)cc32)c1", "note": "(stereo not shown)", "values": [{"measurement": "melting point", "value": 114, "unit": "°C"}]}, {"compound": "COc1ccc(CN2C(=O)C(C)(c3cc(C(=O)NC4CCCCC4)ccc3Cl)c3cc(Cl)ccc32)c(OC)c1", "note": "(stereo not shown)", "values": [{"measurement": "melting point", "value": 129.8, "unit": "°C"}]}, {"compound": "COc1ccc(CN2C(=O)C(C)(c3cc(C(=O)N(C)C)ccc3Cl)c3cc(Cl)ccc32)c(OC)c1", "note": "(stereo not shown) (hydrate or solvate)", "values": [{"measurement": "melting point", "value": 184, "unit": "°C"}]}, {"compound": "CCNC(=O)c1ccc(Cl)c(C2(C)C(=O)N(Cc3ccc(OC)cc3OC)c3ccc(Cl)cc32)c1", "note": "(stereo not shown) (hydrate or solvate)", "values": [{"measurement": "melting point", "value": 248, "unit": "°C"}]}]}
